For 32 compounds, EC50, SI and CC50 results are on record in patent US11407715B2, “Substituted indoline derivatives as dengue viral replication inhibitors” (JANSSEN PHARMACEUTICALS, INC., priority 2017, dated 2022).

One data set deals with DENV-2 16681 strain. The data set can be described thus: microbe, parasite or virus in culture. Type of data set: cell-based, Dengue virus. The following applies: for EC50: DENV-2 16681 eGFP, Vero cells, MOI 0.5, 3 days; for SI: SI=CC50/EC50, DENV-2 antiviral assay.
The next data set is described as follows: in vitro. The following applies: African green monkey.
The test system of another data set is Vero cells. Conditions: African green monkey.
[1] abbreviates: Dengue virus, DENV2, Vero, 72 h.

As for `COc1cc(NC(C(=O)N2CCc3ccc(OC(F)(F)F)cc32)c2ccc(Cl)cc2)cc(OCCC(C)C(=O)O)c1` (racemic) [Compound 1, 4-(3-((1-(4-chlorophenyl)-2-oxo-2-(6-(trifluoromethoxy)indolin-1-yl)ethyl)amino)-5-methoxyphenoxy)-2-methylbutanoic acid], the EC50 in the data set on DENV-2 16681 strain (setting [1]) came to 0.5 nM. Further, the SI in the data set with DENV-2 16681 strain is 24400. Also, the CC50 in the data set “in vitro” is 11 µM.

In the data set with DENV-2 16681 strain (setting [1]), `COc1cc(NC(C(=O)N2CCc3ccc(OC(F)(F)F)cc32)c2ccc(Cl)cc2)cc(OCCC(C)(C)C(=O)O)c1` (racemic) [Compound 2, 4-(3-((1-(4-chlorophenyl)-2-oxo-2-(6-(trifluoromethoxy)indolin-1-yl)ethyl)amino)-5-methoxyphenoxy)-2,2-dimethylbutanoic acid] had an EC50 of 0.62 nM. Further, in the data set with DENV-2 16681 strain, the SI was found to be 19200. This compound registered a CC50 in “in vitro” of 12 µM.

In the data set with DENV-2 16681 strain, `COc1cc(NC(C(=O)N2CCc3ccc(OC(F)(F)F)cc32)c2ccc(Cl)cc2)cc(OCCC(C)C(=O)O)c1` (single isomer, unassigned) [Compound 1A] returned an EC50 of 18 nM and an SI of 523. Besides, the CC50 in the data set with Vero cells was 9.6 µM.

In the data set on DENV-2 16681 strain, `COc1cc(NC(C(=O)N2CCc3ccc(OC(F)(F)F)cc32)c2ccc(Cl)cc2)cc(OCCC(C)C(=O)O)c1` (single isomer, unassigned) [Compound 1B] registered an EC50 of 18 nM and an SI of 579. In the data set on Vero cells, this compound returned a CC50 of 10 µM.

In the data set on DENV-2 16681 strain, `COc1cc(NC(C(=O)N2CCc3ccc(OC(F)(F)F)cc32)c2ccc(Cl)cc2)cc(OCCC(C)(C)C(=O)O)c1` (single isomer, unassigned) [Compound 2B] displayed an EC50 of 19 nM and an SI of 565. The CC50 in the data set with Vero cells turned out to be 11 µM.

In the data set with DENV-2 16681 strain, `COc1cc(NC(C(=O)N2CCc3ccc(OC(F)(F)F)cc32)c2ccc(Cl)cc2)cc(OCC(C)CC(=O)O)c1` (single isomer, unassigned) [Compound 4B] came in with a half-maximal effective concentration (EC50) of 11 nM and an SI of 935. The compound further gave a CC50 with Vero cells of 10 µM.

In the data set on DENV-2 16681 strain, `COc1cc(NC(C(=O)N2CCc3ccc(OC(F)(F)F)cc32)c2ccc(Cl)cc2)cc(OCC2(CC(=O)O)CC2)c1` (single isomer, unassigned) [Compound 5B] gave an EC50 of 11 nM and an SI of 921. This compound also displayed a CC50 in the data set with Vero cells of 10 µM.

As for `COc1cc(CCCCC(=O)O)cc(NC(C(=O)N2CCc3ccc(OC(F)(F)F)cc32)c2ccc(Cl)cc2)c1` (single isomer, unassigned) [Compound 14B], in the data set on DENV-2 16681 strain, the EC50 worked out at 60 nM and the SI is given as 156. This compound also returned a CC50 in the data set with Vero cells of 9.3 µM.

In the data set with DENV-2 16681 strain, `COc1cc(NC(C(=O)N2CCc3ccc(OC(F)(F)F)cc32)c2ccc(Cl)cc2OC)cc(OCCC(C)C(=O)O)c1` (single isomer, unassigned) [Compound 17B] came in with a half-maximal effective concentration (EC50) of 180 nM and an SI of 59. Also, the CC50 with Vero cells amounted to 11 µM.

`COc1cc(NC(C(=O)N2CCc3cc(OC)c(C(F)(F)F)cc32)c2ccc(Cl)cc2)cc(OCCC(C)C(=O)O)c1` (single isomer, unassigned) [Compound 20B]: in the data set on DENV-2 16681 strain, the EC50 amounted to 180 nM and the SI came to 69. In addition, the CC50 in the data set on Vero cells was determined as 12 µM.

Turning to `COc1cc(NC(C(=O)N2CCc3cc(F)c(OC(F)(F)F)cc32)c2ccc(Cl)cc2)cc(OCC2CC2C(=O)O)c1` (single isomer, unassigned) [Compound 26B, (1 S*,2S*)-2-((3-((1-(4-chlorophenyl)-2-(5-fluoro-6-(trifluoromethoxy)indolin-1-yl)-2-oxoethyl)amino)-5-methoxyphenoxy)methyl)-cyclopropanecarboxylic Acid], in the data set on DENV-2 16681 strain, the concentration for a half-maximal effect (EC50) was 0.94 nM and the SI turned out to be 10600. In the data set on Vero cells, this compound showed a CC50 of 12 µM.

For the compound `COc1cc(NC(C(=O)N2CCc3cc(F)c(OC(F)(F)F)cc32)c2ccc(Cl)cc2)cc(OC2CC(C(=O)O)C2)c1` (single isomer, unassigned) [Compound 27A], in the data set on DENV-2 16681 strain, the EC50 is 0.41 nM and the SI was found to be 14300. Also, the CC50 with Vero cells was 11 µM.

In the data set on DENV-2 16681 strain, `COc1cc(NC(C(=O)N2CCc3cc(OC)c(Cl)cc32)c2ccc(Cl)cc2)cc(OC2CC(C(=O)O)C2)c1` (single isomer, unassigned) [Compound 32A] had an EC50 of 63 nM and an SI of 205. In addition, the CC50 in the data set with Vero cells was 13 µM.

For `COc1cc(NC2CC(C(=O)O)C2)cc(NC(C(=O)N2CCc3ccc(OC(F)(F)F)cc32)c2ccc(Cl)cc2)c1` (single isomer, unassigned) [Compound 33B], in the data set with DENV-2 16681 strain, the EC50 stood at 7.9 nM and the SI is listed as 1760. The CC50 in the data set on Vero cells is 14 µM.

For `COc1cc(NC(C(=O)N2CCc3ccc(OC(F)(F)F)cc32)c2ccc(Cl)cc2)cc(OCC2CC2C(=O)O)c1` (stereo not drawn) [Compound 6BA], in the data set with DENV-2 16681 strain, the EC50 amounted to 12 nM and the SI turned out to be 703. This compound also gave a CC50 in the data set on Vero cells of 8.7 µM.

Consider `COc1cc(NC(C(=O)N2CCc3ccc(OC(F)(F)F)cc32)c2ccc(Cl)cc2)cc(OC2CC(C(=O)O)C2)c1` (stereo not drawn) [Compound 7A], for which, in the data set on DENV-2 16681 strain, a half-maximal response (EC50) required 9.1 nM and the SI stood at 1130. In the data set with Vero cells, this compound returned a CC50 of 10 µM.

In the case of `COc1cc(NC(C(=O)N2CCc3ccc(OC(F)(F)F)cc32)c2ccc(Cl)cc2)cc(OC2CC(C(=O)O)C2)c1` (stereo not drawn) [Compound 8, (1s,3s)-3-(3-((1-(4-chlorophenyl)-2-oxo-2-(6-(trifluoromethoxy)indolin-1-yl)ethyl)amino)-5-methoxyphenoxy)cyclobutanecarboxylic acid], in the data set with DENV-2 16681 strain, the EC50 was 0.048 nM and the SI was greater than 126733. The compound also returned a CC50 with Vero cells of 13 µM.

In the case of `COc1cc(NC(C(=O)N2CCc3ccc(OC(F)(F)F)cc32)c2ccc(Cl)cc2)cc(OC2CC(C(=O)O)C2)c1` (stereo not drawn) [Compound 8A], in the data set with DENV-2 16681 strain, the EC50 is 0.86 nM and the SI was 11600. For the same compound, in the data set on Vero cells, the CC50 was found to be 12 µM.

In the data set with DENV-2 16681 strain, `COc1cc(NC(C(=O)N2CCc3ccc(OC(F)(F)F)cc32)c2ccc(Cl)cc2)cc(OCC2CC(C(=O)O)C2)c1` (stereo not drawn) [Compound 10A] had an EC50 of 2.7 nM and an SI of 3790. The CC50 in the data set with Vero cells was determined as 10 µM.

In the data set on DENV-2 16681 strain, `COc1cc(NC(C(=O)N2CCc3ccc(OC(F)(F)F)cc32)c2ccc(Cl)cc2)cc(OCC2CC(C(=O)O)C2)c1` (stereo not drawn) [Compound 11, (1r,3r)-3-((3-((1-(4-chlorophenyl)-2-oxo-2-(6-(trifluoromethoxy)indolin-1-yl)ethyl)amino)-5-methoxyphenoxy)methyl)cyclobutanecarboxylic acid] gave an EC50 of 0.13 nM and an SI of 97100. The same compound showed a CC50 in the data set on Vero cells of 12 µM.

`COc1cc(NC(C(=O)N2CCc3ccc(OC(F)(F)F)cc32)c2ccc(Cl)cc2)cc(OCC2CC(C(=O)O)C2)c1` (stereo not drawn) [Compound 11A]: in the data set on DENV-2 16681 strain, it took 3.8 nM to reach a half-maximal effect (EC50) and the SI came out at 2710. In the data set on Vero cells, this compound showed a CC50 of 10 µM.

For `COc1cc(NC(C(=O)N2CCc3ccc(OC(F)(F)F)cc32)c2ccc(Cl)cc2OC)cc(OCC2CC2C(=O)O)c1` (stereo not drawn) [Compound 19BA], in the data set with DENV-2 16681 strain, the EC50 is 16 nM and the SI came out at 707. Also, the CC50 in the data set on Vero cells worked out at 11 µM.

For `COc1cc(NC(C(=O)N2CCc3cc(OC)c(C(F)(F)F)cc32)c2ccc(Cl)cc2)cc(OCC2CC2C(=O)O)c1` (stereo not drawn) [Compound 22BA], in the data set on DENV-2 16681 strain, the EC50 is 15 nM and the SI is 786. This compound gave a CC50 in the data set with Vero cells of 12 µM.

As to `COc1cc(NC(C(=O)N2CCc3cc(OC)c(C(F)(F)F)cc32)c2ccc(Cl)cc2)cc(OCC2CC(C(=O)O)C2)c1` (stereo not drawn) [Compound 24A], in the data set with DENV-2 16681 strain, the midpoint of the response, the EC50, lay at 24 nM and the SI is given as 469. Further, the CC50 in the data set on Vero cells came out at 11 µM.

With `COc1cc(NC(C(=O)N2CCc3cc(OC)c(C(F)(F)F)cc32)c2ccc(Cl)cc2)cc(OCC2CC(C(=O)O)C2)c1` (stereo not drawn) [Compound 25, (1r,3r)-3-((3-((1-(4-chlorophenyl)-2-(5-methoxy-6-(trifluoromethyl)indolin-1-yl)-2-oxoethyl)amino)-5-methoxyphenoxy)methyl)-cyclobutanecarboxylic Acid], in the data set with DENV-2 16681 strain, a half-maximal effect (EC50) was put at 0.45 nM and the SI is reported as 26800. In the data set on Vero cells, this compound registered a CC50 of 12 µM.

Regarding `COc1cc(NC(C(=O)N2CCc3cc(OC)c(C(F)(F)F)cc32)c2ccc(Cl)cc2)cc(OCC2CC(C(=O)O)C2)c1` (stereo not drawn) [Compound 25A], in the data set with DENV-2 16681 strain, the EC50 turned out to be 7.1 nM and the SI amounted to 1640. The CC50 in the data set on Vero cells was found to be 12 µM.

In the data set with DENV-2 16681 strain, `COc1cc(NC(C(=O)N2CCc3ccc(OC(F)(F)F)cc32)c2ccc(Cl)cc2)cc(OCC2(F)CC2C(=O)O)c1` (stereo not drawn) [Compound 28AA] came in with an EC50 of 330 nM and an SI of 34. The compound further had a CC50 in the data set with Vero cells of 11 µM.

In the case of `COc1cc(NC(C(=O)N2CCc3ccc(OC(F)(F)F)cc32)c2ccc(Cl)cc2)cc(OCC2(F)CC2C(=O)O)c1` (stereo not drawn) [Compound 28BA], in the data set on DENV-2 16681 strain, the EC50 amounted to 17 nM and the SI stood at 574. In the data set on Vero cells, this compound came in with a CC50 of 10 µM.

In the data set on DENV-2 16681 strain, `COc1cc(NC(C(=O)N2CCc3ccc(OC(F)(F)F)cc32)c2ccc(Cl)cc2)cc(OCC2(F)CC2C(=O)O)c1` (stereo not drawn) [Compound 29AA] had a 50% effective concentration (EC50) of 61 nM and an SI of 151. The compound also gave a CC50 in the data set on Vero cells of 9.2 µM.

As to `COc1cc(NC(C(=O)N2CCc3ccc(OC(F)(F)F)cc32)c2ccc(Cl)cc2)cc(OCC2(F)CC2C(=O)O)c1` (stereo not drawn) [Compound 29BA], in the data set with DENV-2 16681 strain, the EC50 came out at 3.4 nM and the SI came to 2890. The compound further showed a CC50 in the data set with Vero cells of 9.8 µM.

In the data set with DENV-2 16681 strain, `COc1cc(NC(C(=O)N2CCc3cc(F)c(OC(F)(F)F)cc32)c2ccc(Cl)cc2)cc(OCC2CC(C(=O)O)C2)c1` (stereo not drawn) [Compound 30B] yielded an EC50 of 5.9 nM and an SI of 1800. The compound further showed a CC50 with Vero cells of 11 µM.

As to `COc1cc(NC(C(=O)N2CCc3cc(F)c(OC(F)(F)F)cc32)c2ccc(Cl)cc2)cc(OCC2CC(C(=O)O)C2)c1` (stereo not drawn) [Compound 31B], in the data set with DENV-2 16681 strain, the EC50 came out at 2.6 nM and the SI is recorded as 4400. In the data set on Vero cells, the CC50 stood at 12 µM.
